Test results: paper PMC3375835 (Tetrahedron letters, 2012)

How the values were obtained:
Assay type in all cases: cell-based
HIV-1NL4–3 = experiment: Anti-HIV activity against HIV-1NL4–3 infected MT-4 cells; conditions: for EC50 (concentration of the test sample that was effective to suppress HIV replication by 50%): '-' = No activity (footnote b); for EC50: read-out: EC50 (concentration of the test sample that was effective to suppress HIV replication by 50%), '-' = No activity (footnote b)
[1] = Cytotoxicity to mock-infected MT-4 cells; conditions: human
mock-infected MT-4 cells = experiment: Cytotoxicity to mock-infected MT-4 cells; conditions: read-out: CC50 (concentration of test sample that was cytotoxic to 50% of the mock-infected cells)

With `C=C(C)C1CCC2(CO[Si](C)(C)C(C)(C)C)CCC3(C)C(CCC4C5(C)CCC(OC(=O)OCc6cn(C7CC(n8cc(C)c(=O)[nH]c8=O)OC7CO)nn6)C(C)(C)C5CCC43C)C12` (stereo not drawn) [Compound 9] the “EC50 (concentration of the test sample that was effective to suppress HIV replication by 50%)” value (HIV-1NL4–3) was “inactive and -”.

In the case of `C#CCOC1CCC2(C)C(CCC3(C)C2CCC2C4C(C(=C)C)CCC4(CO[Si](C)(C)C(C)(C)C)CCC23C)C1(C)C` (stereo not drawn) [Compound 2], the “EC50 (concentration of the test sample that was effective to suppress HIV replication by 50%)” value (HIV-1NL4–3) is reported as “- ^b”.

With `C#CCOC(=O)OC1CCC2(C)C(CCC3(C)C2CCC2C4C(C(=C)C)CCC4(CO)CCC23C)C1(C)C` (stereo not drawn) [Compound 5] the “EC50 (concentration of the test sample that was effective to suppress HIV replication by 50%)” value (HIV-1NL4–3) was “-”.

In the case of `C#CCOC1CCC2(C)C(CCC3(C)C2CCC2C4C(C(=C)C)CCC4(CO)CCC23C)C1(C)C` (stereo not drawn) [Compound 4], the “EC50 (concentration of the test sample that was effective to suppress HIV replication by 50%)” value (HIV-1NL4–3) is reported as “-”.

With `Cc1cn([C@H]2C[C@H](N=[N+]=[N-])[C@@H](CO)O2)c(=O)[nH]c1=O` [AZT, 3′-azido-3′-deoxythymidine, reference compound] the “SI (Selectivity index = CC50/EC50)” value (HIV-1NL4–3; CC50/EC50) was 1385 and the CC50 [1] was 140 µM.

For `C#CCOC(=O)OC1CCC2(C)C(CCC3(C)C2CCC2C4C(C(=C)C)CCC4(CO[Si](C)(C)C(C)(C)C)CCC23C)C1(C)C` (stereo not drawn) [Compound 3], the “EC50 (concentration of the test sample that was effective to suppress HIV replication by 50%)” value (HIV-1NL4–3) was “-”.

Work on `C#CCOC(=O)[C@]12CC[C@@H](C(=C)C)[C@@H]1[C@H]1CC[C@@H]3[C@@]4(C)CC[C@H](OC(=O)CC(C)(C)C(=O)O)C(C)(C)[C@@H]4CC[C@@]3(C)[C@]1(C)CC2` [Compound 15] yielded an EC50 (HIV-1NL4–3) of 0.067 µM and a CC50 (mock-infected MT-4 cells) of 15.3 µM.

With `C#CCOC1CCC2(C)C(CCC3(C)C2CCC2C4C(C(=C)C)CCC4(COC(=O)CC(C)(C)C(=O)O)CCC23C)C1(C)C` (stereo not drawn) [Compound 7] the “EC50 (concentration of the test sample that was effective to suppress HIV replication by 50%)” value (HIV-1NL4–3) was “-”.

Compound `C=C(C)[C@@H]1CC[C@]2(C(=O)O)CC[C@]3(C)[C@H](CC[C@@H]4[C@@]5(C)CC[C@H](OC(=O)CC(C)(C)C(=O)O)C(C)(C)[C@@H]5CC[C@]43C)[C@@H]12` [Bevirimat (14), 3-O-(3′,3′-dimethylsuccinyl)betulinic acid, reference compound] has a CC50 [1] of 13.2 µM.

`C=C(C)[C@@H]1CC[C@]2(C(=O)OCc3cn([C@H]4C[C@H](n5cc(C)c(=O)[nH]c5=O)O[C@@H]4CO)nn3)CC[C@]3(C)[C@H](CC[C@@H]4[C@@]5(C)CC[C@H](OC(=O)CC(C)(C)C(=O)O)C(C)(C)[C@@H]5CC[C@]43C)[C@@H]12` [Compound 16] showed an EC50 (HIV-1NL4–3) of 0.1 µM and a CC50 (mock-infected MT-4 cells) of 11.2 µM.

In the case of `C=C(C)C1CCC2(COC(=O)CC(C)(C)C(=O)O)CCC3(C)C(CCC4C5(C)CCC(OCc6cn(C7CC(n8cc(C)c(=O)[nH]c8=O)OC7CO)nn6)C(C)(C)C5CCC43C)C12` (stereo not drawn) [Compound 13], the EC50 (HIV-1NL4–3) is reported as 0.35 µM and the CC50 (mock-infected MT-4 cells) is reported as > 4.6 µM.
